The record followed here is the Kinase Knowledgebase extract (Sharma et al. 2016).

For one assay, the target named is PIK3CG (human) (UniProt P48736). Nature of the assay: Assessment of PIK3CG Kinase Activity.
The next assay has as its target PIK3CA (human) (UniProt P42336). Nature of the assay: Assessment of PIK3CA Kinase Activity.

Structures are written as SMILES.

Chain of PIK3CA (human) (P42336 whole entry, looked up): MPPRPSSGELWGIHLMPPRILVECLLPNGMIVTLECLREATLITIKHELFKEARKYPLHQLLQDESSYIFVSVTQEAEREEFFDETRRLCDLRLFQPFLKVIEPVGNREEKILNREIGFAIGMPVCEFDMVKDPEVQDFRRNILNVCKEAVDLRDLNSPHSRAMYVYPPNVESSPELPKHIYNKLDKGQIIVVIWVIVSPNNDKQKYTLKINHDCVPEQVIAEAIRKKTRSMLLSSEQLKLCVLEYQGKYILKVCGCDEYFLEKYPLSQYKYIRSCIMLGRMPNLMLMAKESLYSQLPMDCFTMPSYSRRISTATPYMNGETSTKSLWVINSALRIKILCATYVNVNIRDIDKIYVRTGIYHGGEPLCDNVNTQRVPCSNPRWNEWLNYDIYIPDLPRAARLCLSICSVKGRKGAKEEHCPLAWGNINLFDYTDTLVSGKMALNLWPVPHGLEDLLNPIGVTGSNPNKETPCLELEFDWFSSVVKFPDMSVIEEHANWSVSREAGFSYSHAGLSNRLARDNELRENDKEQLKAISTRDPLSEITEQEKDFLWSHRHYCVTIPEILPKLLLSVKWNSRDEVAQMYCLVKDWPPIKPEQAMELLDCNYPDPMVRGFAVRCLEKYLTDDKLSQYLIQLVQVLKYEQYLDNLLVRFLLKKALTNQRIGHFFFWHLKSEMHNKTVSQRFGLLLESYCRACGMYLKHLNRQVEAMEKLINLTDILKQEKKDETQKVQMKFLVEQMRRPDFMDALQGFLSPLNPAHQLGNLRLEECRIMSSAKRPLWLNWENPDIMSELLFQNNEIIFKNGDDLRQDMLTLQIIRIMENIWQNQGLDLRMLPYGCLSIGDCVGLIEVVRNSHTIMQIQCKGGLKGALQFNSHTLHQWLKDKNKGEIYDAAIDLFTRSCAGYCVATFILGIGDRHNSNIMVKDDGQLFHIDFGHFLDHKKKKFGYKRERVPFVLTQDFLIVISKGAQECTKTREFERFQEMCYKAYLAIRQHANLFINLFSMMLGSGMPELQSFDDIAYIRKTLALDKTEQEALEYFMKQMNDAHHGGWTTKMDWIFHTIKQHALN
Chain of PIK3CG (human) (P48736 whole entry, looked up): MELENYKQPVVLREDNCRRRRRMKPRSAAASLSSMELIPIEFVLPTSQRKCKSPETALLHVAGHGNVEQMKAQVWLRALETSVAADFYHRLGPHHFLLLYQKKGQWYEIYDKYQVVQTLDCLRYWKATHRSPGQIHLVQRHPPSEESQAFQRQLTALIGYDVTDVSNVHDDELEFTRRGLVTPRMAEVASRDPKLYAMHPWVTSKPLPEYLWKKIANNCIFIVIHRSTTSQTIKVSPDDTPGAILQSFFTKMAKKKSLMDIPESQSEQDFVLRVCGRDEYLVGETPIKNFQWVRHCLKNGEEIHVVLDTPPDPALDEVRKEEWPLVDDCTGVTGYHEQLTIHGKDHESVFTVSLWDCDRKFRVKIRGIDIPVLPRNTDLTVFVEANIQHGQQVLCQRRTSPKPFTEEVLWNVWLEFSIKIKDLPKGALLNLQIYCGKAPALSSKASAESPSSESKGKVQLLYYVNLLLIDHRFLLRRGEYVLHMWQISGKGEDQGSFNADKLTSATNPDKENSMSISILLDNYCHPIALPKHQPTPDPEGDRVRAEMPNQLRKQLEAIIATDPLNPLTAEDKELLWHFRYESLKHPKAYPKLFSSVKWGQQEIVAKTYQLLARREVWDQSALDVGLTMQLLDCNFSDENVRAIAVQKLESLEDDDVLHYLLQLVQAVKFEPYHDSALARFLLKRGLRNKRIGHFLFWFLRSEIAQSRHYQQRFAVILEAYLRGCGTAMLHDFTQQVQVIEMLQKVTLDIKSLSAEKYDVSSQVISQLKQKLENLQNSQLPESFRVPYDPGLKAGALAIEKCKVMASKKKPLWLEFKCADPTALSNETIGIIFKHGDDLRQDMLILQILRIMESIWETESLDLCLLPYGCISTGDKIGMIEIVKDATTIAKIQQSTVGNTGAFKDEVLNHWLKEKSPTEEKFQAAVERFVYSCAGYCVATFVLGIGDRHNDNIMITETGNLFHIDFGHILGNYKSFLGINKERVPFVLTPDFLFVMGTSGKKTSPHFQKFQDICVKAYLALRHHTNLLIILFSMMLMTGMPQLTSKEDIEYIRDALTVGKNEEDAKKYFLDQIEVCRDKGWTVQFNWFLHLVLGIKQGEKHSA

At PIK3CG (human), `Nc1ccc(Nc2nc3ccc(-c4cncc(C(F)(F)F)c4)cc3s2)cn1` returned a Ki of under 100 nM.
The compound `COc1cncc(-c2ccc3nc(Nc4ccc(N(C)C(C)=O)cc4)sc3c2)c1` had a Ki at PIK3CG (human) of under 100 nM.
In the case of `COc1cc(-c2ccc3nc(Nc4cccnc4)sc3c2)cnc1OC`, the Ki on PIK3CG (human) and at PIK3CA (human) was under 100 nM throughout.
As to `COc1cc(-c2ccc3nc(Nc4ncccn4)sc3c2)cnc1OC`, the Ki at PIK3CG (human) and on PIK3CA (human) was under 100 nM in each case.
In turn, `CCN(CC)C(=O)c1cccc(Nc2nc3ccc(-c4cncc(OC)c4)cc3s2)c1` yielded a Ki on PIK3CG (human) of under 100 nM.
Regarding `COc1cc(-c2ccc3nc(Nc4cc[nH]n4)sc3c2)cnc1OC`, the inhibitory constant (Ki) on PIK3CG (human) and at PIK3CA (human) was under 100 nM throughout.
Regarding `COc1cncc(-c2ccc3nc(Nc4ccc(CC(N)=O)cc4)sc3c2)c1`, the Ki at PIK3CG (human) was under 100 nM.
For the compound `CCOc1ncc(-c2ccc3nc(Nc4cnccn4)sc3n2)cc1OC`, the Ki on PIK3CG (human) and at PIK3CA (human) was under 100 nM each time.
Consider `CCn1cc(Nc2nc3ccc(-c4cncc(C(F)(F)F)c4)cc3s2)cn1`, for which the Ki at PIK3CA (human) was under 100 nM.
The same measure, in the same setting: under `COc1cncc(-c2ccc3nc(Nc4cccc(CO)c4)sc3c2)c1` stands under 100 nM.
Regarding `COc1cc(-c2ccc3nc(Nc4cccc(C)n4)sc3c2)cnc1OC`, the Ki on PIK3CG (human) and at PIK3CA (human) was under 100 nM each time.
In turn, `Cc1ccc(Nc2nc3ccc(-c4cncc(C(F)(F)F)c4)cc3s2)nn1` came in with a Ki at PIK3CG (human) of under 100 nM.
`COc1cc(-c2ccc3nc(Nc4nccc(C)n4)sc3c2)cnc1OC`: the Ki on PIK3CG (human) and at PIK3CA (human) was under 100 nM in each case.
Consider `FC(F)(F)c1cncc(-c2ccc3nc(Nc4ccncn4)sc3c2)c1`, for which the inhibition constant Ki on PIK3CG (human) and on PIK3CA (human) was under 100 nM in each case.
In the case of `Cn1cc(Nc2nc3ccc(-c4cncc(C(F)(F)F)c4)cc3s2)cn1`, the Ki at PIK3CG (human) is under 100 nM.
Turning to `COc1cc(-c2ccc3nc(Nc4ccccn4)sc3c2)cnc1OC`, the Ki on PIK3CG (human) and on PIK3CA (human) was under 100 nM throughout.
In the case of `COc1cc(-c2ccc3nc(Nc4cccnc4)sc3n2)cnc1OC`, the Ki on PIK3CG (human) and on PIK3CA (human) was under 100 nM throughout.
Compound `COc1cncc(-c2ccc3nc(Nc4cccnc4)sc3c2)c1` returned a Ki at PIK3CG (human) of under 100 nM.
With `COc1cncc(-c2ccc3nc(Nc4nccs4)sc3c2)c1`, the Ki on PIK3CG (human) and at PIK3CA (human) was under 100 nM in each case.
As to `COc1cncc(-c2ccc3nc(Nc4ccc(C)nn4)sc3c2)c1`, the Ki on PIK3CG (human) and at PIK3CA (human) was under 100 nM each time.
Take `CCCCNS(=O)(=O)c1cccc(Nc2nc3ccc(-c4cncc(OC)c4)cc3s2)c1`: the Ki at PIK3CG (human) was under 100 nM.
Same read-out and setting: under `COc1cncc(-c2ccc3nc(Nc4cccc(S(C)(=O)=O)c4)sc3c2)c1` stands under 100 nM.
For the compound `COc1cncc(-c2ccc3nc(Nc4cncc(C)n4)sc3c2)c1`, the Ki at PIK3CG (human) and on PIK3CA (human) was under 100 nM in each case.
With `COc1cncc(-c2ccc3nc(Nc4cccnc4)sc3n2)c1`, the inhibitory constant (Ki) on PIK3CG (human) is under 100 nM.
Same read-out and setting: under `COc1cc(-c2ccc3nc(Nc4cnccn4)sc3n2)cnc1OC` stands under 100 nM.
With `COc1cc(-c2ccc3nc(Nc4cnccn4)sc3c2)cnc1OC`, the Ki on PIK3CG (human) and on PIK3CA (human) was under 100 nM throughout.
Take `COc1cc(-c2ccc3nc(Nc4ncc(C)s4)sc3c2)cnc1OC`: the Ki at PIK3CG (human) and on PIK3CA (human) was under 100 nM each time.
Regarding `COc1cncc(-c2ccc3nc(Nc4ccc5c(c4)N(C(C)=O)CC5)sc3c2)c1`, the Ki on PIK3CG (human) is under 100 nM.
`COc1cc(-c2ccc3nc(Nc4cncc(C)n4)sc3c2)cnc1OC`: the Ki at PIK3CG (human) and on PIK3CA (human) was under 100 nM in each case.
As to `COc1ncc(-c2ccc3nc(Nc4cccnc4)sc3n2)cc1OC(C)C`, the Ki at PIK3CG (human) and at PIK3CA (human) was under 100 nM in each case.
Turning to `FC(F)(F)c1cncc(-c2ccc3nc(Nc4cccnc4)sc3n2)c1`, the inhibition constant Ki on PIK3CG (human) was under 100 nM.
For the compound `COc1cncc(Nc2nc3ccc(-c4cnc(OC)c(OC)c4)cc3s2)n1`, the Ki on PIK3CG (human) and at PIK3CA (human) was under 100 nM throughout.
On to `CCOc1cc(-c2ccc3nc(Nc4cnccn4)sc3c2)cnc1OC`, for which the Ki at PIK3CG (human) and at PIK3CA (human) was under 100 nM each time.
As to `COc1ncc(-c2ccc3nc(Nc4cnccn4)sc3n2)cc1OC(C)C`, the Ki at PIK3CG (human) and on PIK3CA (human) was under 100 nM throughout.
Regarding `COc1cncc(-c2ccc3nc(Nc4ccccn4)sc3c2)c1`, the Ki at PIK3CG (human) is under 100 nM.
Turning to `COc1cc(-c2ccc3nc(Nc4cnccn4)sc3c2)cnc1N`, the Ki on PIK3CG (human) and on PIK3CA (human) was under 100 nM in each case.
In the case of `COc1cccc(Nc2nc3ccc(-c4cnc(OC)c(OC)c4)cc3s2)n1`, the Ki at PIK3CG (human) and on PIK3CA (human) was under 100 nM throughout.
As for `FC(F)(F)c1cncc(-c2ccc3nc(Nc4cnn(CC5CCCO5)c4)sc3c2)c1` (centres undefined), the inhibitory constant (Ki) on PIK3CG (human) and on PIK3CA (human) was under 100 nM each time.
Consider `COc1cncc(-c2ccc3nc(Nc4cccc(C)n4)sc3c2)c1`, for which the Ki at PIK3CG (human) was under 100 nM.
As for `CCOc1cc(-c2ccc3nc(Nc4cnccn4)sc3n2)cnc1OCC`, the Ki on PIK3CG (human) and on PIK3CA (human) was under 100 nM in each case.
As for `CNC(=O)Cn1cc(Nc2nc3ccc(-c4cncc(C(F)(F)F)c4)cc3s2)cn1`, the Ki on PIK3CG (human) and on PIK3CA (human) was under 100 nM each time.
At PIK3CG (human), `COc1cncc(-c2ccc3nc(Nc4ccc(N)cc4)sc3c2)c1` had a Ki of under 100 nM.
Take `COc1cncc(-c2ccc3nc(Nc4cnccn4)sc3c2)c1`: the Ki at PIK3CG (human) and at PIK3CA (human) was under 100 nM in each case.
In the case of `COCCn1cc(Nc2nc3ccc(-c4cncc(C(F)(F)F)c4)cc3s2)cn1`, the Ki at PIK3CG (human) and at PIK3CA (human) was under 100 nM in each case.
In the case of `COc1cncc(-c2ccc3nc(Nc4cc[nH]n4)sc3c2)c1`, the Ki on PIK3CG (human) and at PIK3CA (human) was under 100 nM in each case.
On to `O=C(O)Cn1cc(Nc2nc3ccc(-c4cncc(C(F)(F)F)c4)cc3s2)cn1`, for which the Ki at PIK3CG (human) and at PIK3CA (human) was under 100 nM in each case.
Compound `CNC(=O)Cc1ccc(Nc2nc3ccc(-c4cncc(OC)c4)cc3s2)cc1` yielded a Ki at PIK3CG (human) of under 100 nM.
On to `COc1ncc(-c2ccc3nc(Nc4cnccn4)sc3c2)cc1OC(C)C`, for which the Ki on PIK3CG (human) and at PIK3CA (human) was under 100 nM throughout.
Compound `CCOc1cc(-c2ccc3nc(Nc4cccnc4)sc3n2)cnc1OCC` registered a Ki on PIK3CG (human) of under 100 nM.
For the compound `COc1cncc(-c2ccc3nc(Nc4nc(C)cs4)sc3c2)c1`, on PIK3CG (human), the Ki was under 100 nM.
Take `COc1cncc(-c2ccc3nc(Nc4ccncn4)sc3c2)c1`: the Ki on PIK3CG (human) and at PIK3CA (human) was under 100 nM in each case.
On to `COc1cc(-c2ccc3nc(Nc4ccn(C)n4)sc3c2)cnc1OC`, for which the Ki at PIK3CG (human) and at PIK3CA (human) was under 100 nM throughout.
On PIK3CG (human), `COc1cncc(-c2ccc3nc(Nc4nncs4)sc3c2)c1` returned a Ki of under 100 nM.
Consider `CCOc1ncc(-c2ccc3nc(Nc4cccnc4)sc3n2)cc1OC`, for which the Ki on PIK3CG (human) and on PIK3CA (human) was under 100 nM each time.
Take `CCOc1cncc(Nc2nc3ccc(-c4cnc(OC)c(OC)c4)cc3s2)n1`: the inhibition constant (Ki) on PIK3CG (human) and at PIK3CA (human) was under 100 nM throughout.
`FC(F)(F)c1cncc(-c2ccc3nc(Nc4cnccn4)sc3c2)c1`: the inhibition constant (Ki) at PIK3CA (human) is under 100 nM.
On to `COc1cc(-c2ccc3nc(Nc4ccncn4)sc3c2)cnc1OC`, for which the inhibition constant Ki on PIK3CG (human) and on PIK3CA (human) was under 100 nM in each case.
On to `COc1cncc(-c2ccc3nc(Nc4ccc(Cl)nn4)sc3c2)c1`, for which the Ki on PIK3CG (human) is under 100 nM.
On to `CCOc1ncc(-c2ccc3nc(Nc4cnccn4)sc3c2)cc1OC`, for which the Ki at PIK3CG (human) and on PIK3CA (human) was under 100 nM in each case.
On to `COc1cncc(-c2ccc3nc(Nc4ccn(C)n4)sc3c2)c1`, for which the inhibitory constant (Ki) on PIK3CG (human) and on PIK3CA (human) was under 100 nM in each case.
Take `CCOc1cc(-c2ccc3nc(Nc4cnccn4)sc3c2)cnc1OCC`: the Ki at PIK3CG (human) and on PIK3CA (human) was under 100 nM in each case.
Take `CCc1ncc(-c2ccc3nc(Nc4cnccn4)sc3c2)cc1OC`: the Ki at PIK3CG (human) is under 100 nM.
Still for that read-out and setting: under `COc1cncc(-c2ccc3nc(Nc4cccc(NC(C)=O)c4)sc3c2)c1` stands under 100 nM.
Regarding `COc1cc(-c2ccc3nc(Nc4nnc(C)s4)sc3c2)cnc1OC`, the Ki on PIK3CG (human) and on PIK3CA (human) was under 100 nM throughout.
As to `COc1cncc(-c2ccc3nc(Nc4ccc5nc[nH]c5c4)sc3c2)c1`, the Ki on PIK3CG (human) and on PIK3CA (human) was under 100 nM in each case.
Take `CCN(CC)C(=O)c1cccc(Nc2nc3ccc(-c4cncc(OC)c4)cc3s2)n1`: the Ki at PIK3CA (human) is under 100 nM.
Turning to `COc1cc(-c2ccc3nc(Nc4cnccn4)sc3c2)cnc1C`, the inhibition constant Ki on PIK3CG (human) and on PIK3CA (human) was under 100 nM in each case.
For the compound `CCCn1ccc(Nc2nc3ccc(-c4cnc(OC)c(OC)c4)cc3s2)n1`, the Ki at PIK3CG (human) and on PIK3CA (human) was under 100 nM in each case.

Broadly, the Ki is a dissociation constant, usually derived from enzyme kinetics or from competition with a known ligand.
